Assay results taken from ChEMBL document CHEMBL1681761, “Synthesis, biological evaluation and molecular docking studies of stellatin derivatives as cyclooxygenase (COX-1, COX-2) inhibitors and anti-inflammatory agents” (Bioorg Med Chem Lett, 2011).

How the values were obtained:
Mus musculus [1] = assay: Antiinflammatory activity against TPA-induced mouse edema model assessed as ear thickness at 0.5 mg/ear (Rbv = 0.270 +/- 0.008 mm); assay type: functional
Mus musculus [2] = assay: Antiinflammatory activity against TPA-induced mouse edema model assessed as reduction in ear edema at 0.5 mg/ear; assay type: functional
[3] = target: T1, Prostaglandin G/H synthase 2 (Homo sapiens, UniProt P35354)
T1 sequence (P35354 whole entry): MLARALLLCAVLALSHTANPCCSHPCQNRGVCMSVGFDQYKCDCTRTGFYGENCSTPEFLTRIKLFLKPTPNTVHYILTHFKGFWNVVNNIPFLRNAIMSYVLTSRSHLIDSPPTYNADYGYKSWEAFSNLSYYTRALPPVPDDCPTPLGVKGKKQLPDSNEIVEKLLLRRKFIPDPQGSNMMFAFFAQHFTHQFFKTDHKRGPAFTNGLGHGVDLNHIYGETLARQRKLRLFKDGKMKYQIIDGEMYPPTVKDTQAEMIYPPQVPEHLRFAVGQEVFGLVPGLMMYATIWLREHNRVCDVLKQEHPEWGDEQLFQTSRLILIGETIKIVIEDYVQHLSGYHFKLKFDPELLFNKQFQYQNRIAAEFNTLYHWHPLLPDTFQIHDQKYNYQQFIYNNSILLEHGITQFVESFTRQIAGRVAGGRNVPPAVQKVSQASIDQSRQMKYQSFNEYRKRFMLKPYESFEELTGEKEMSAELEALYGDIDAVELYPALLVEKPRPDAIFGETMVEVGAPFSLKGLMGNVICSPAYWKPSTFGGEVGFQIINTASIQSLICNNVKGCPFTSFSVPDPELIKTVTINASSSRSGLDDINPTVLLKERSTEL

[4] = target: T2, Prostaglandin G/H synthase 1 (Homo sapiens, UniProt P23219); conditions: at 30 µM
T2 sequence (P23219 whole entry): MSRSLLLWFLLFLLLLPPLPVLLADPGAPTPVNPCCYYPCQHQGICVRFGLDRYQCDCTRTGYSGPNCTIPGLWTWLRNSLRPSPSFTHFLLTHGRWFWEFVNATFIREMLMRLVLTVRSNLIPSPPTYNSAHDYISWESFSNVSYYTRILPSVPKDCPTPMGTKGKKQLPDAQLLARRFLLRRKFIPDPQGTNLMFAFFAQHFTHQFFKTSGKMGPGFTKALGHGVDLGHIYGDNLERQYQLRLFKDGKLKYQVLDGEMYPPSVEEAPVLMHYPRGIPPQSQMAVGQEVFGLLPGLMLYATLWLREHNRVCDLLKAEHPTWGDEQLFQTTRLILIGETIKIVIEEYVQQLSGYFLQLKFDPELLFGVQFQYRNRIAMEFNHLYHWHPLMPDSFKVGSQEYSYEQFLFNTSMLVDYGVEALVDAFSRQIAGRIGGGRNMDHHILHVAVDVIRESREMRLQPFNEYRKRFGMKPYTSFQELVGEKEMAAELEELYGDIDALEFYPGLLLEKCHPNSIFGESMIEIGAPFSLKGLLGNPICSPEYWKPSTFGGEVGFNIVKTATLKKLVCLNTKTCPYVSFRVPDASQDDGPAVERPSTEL
Description: Inhibition of COX1 at 30 uM

[5] = target: T2, Prostaglandin G/H synthase 1; assay: Inhibition of COX1
[6] = target: T3, Prostaglandin G/H synthase 2 (Homo sapiens) (UniProt P35354); conditions: at 30 µM
T3 sequence (whole entry): T1 sequence (P35354 whole entry)
Description: Inhibition of COX2 at 30 uM

Compound	Activity (Mus musculus [1]) [mm]	inhibition (INH) (Mus musculus [2]) [%]	IC50 [3] [µM]	inhibition [4] [%]	IC50 [5] [µM]	inhibition [6] [%]
COc1ccc2c(c1)c(CC(=O)O)c(C)n2C(=O)c1ccc(Cl)cc1 [INDOMETHACIN]	0.05	81.48	–	–	–	–
COc1cc2oc(C)cc(=O)c2c(O)c1O	0.058	78.4	15.4	78.1	19.8	85
COc1cc(/C=C/C(=O)CC(=O)/C=C/c2ccc(O)c(OC)c2)ccc1O	–	–	–	59	–	–
COc1c(OC)c(O)c2c(=O)cc(C)oc2c1Br	0.08	70.37	25.4	63.8	29.3	67
COc1c(OC)c(O)c2c(=O)cc(C)oc2c1I	–	–	–	57.2	–	37.7
COc1cc2oc(C)cc(=O)c2c(O)c1OCC=C(C)C	0.06	77.77	15.5	80.7	18.7	83.2
COc1cc2oc(C)cc(=O)c2c(OCC=C(C)C)c1OC	0.061	77.16	17.6	70.1	22.9	82.5
CC(C)=CCOc1cc2oc(C)cc(=O)c2c(O)c1OCC=C(C)C	0.04	85.18	10.3	82.3	17.2	91.7
COc1cc2oc(C)cc(=O)c2c(OC(=O)c2ccccc2)c1OC	–	–	–	45.8	–	68.1
C=CCOc1cc2oc(C)cc(=O)c2c(O)c1OCC=C	0.053	80.24	13.5	74.1	21.6	89.5
CCOc1c(OC)c(OC)cc2oc(C)cc(=O)c12	–	–	–	54.9	–	49.8
COc1cc2oc(C)cc(=O)c2c(OC)c1OC	–	–	–	70.3	–	47.4
C=CCOc1c(OC)cc2oc(C)cc(=O)c2c1O	0.077	71.3	18	68.3	26	81.5
COc1cc2oc(C)cc(=O)c2c(OCc2ccccc2)c1OC	–	–	–	63.4	–	48.1
CCCOc1c(OC)c(OC)cc2oc(C)cc(=O)c12	–	–	–	40.2	–	48.4
COc1cc2oc(C)cc(=O)c2c(OC(C)=O)c1OC	–	–	–	59	–	46.2
Cc1cc(=O)c2c(O)c(O)c(O)cc2o1	0.025	90.74	8.87	87.5	14.4	94.1
C=CCOc1c(OC)c(OC)cc2oc(C)cc(=O)c12	0.09	66.66	21.2	56.2	38.3	73.9
COc1c(OC)c(O)c2c(=O)cc(C)oc2c1Cl	0.105	61.11	43.4	66.8	27.2	50.3
COc1cc(O)c2c(=O)cc(C)oc2c1 [EUGENIN]	0.071	73.2	20.1	85.6	17.8	78.5
CCCCOc1c(OC)c(OC)cc2oc(C)cc(=O)c12	–	–	–	28.4	–	52.5
COc1cc2oc(C)cc(=O)c2c(O)c1OC [STELLATIN]	0.082	69.44	19.7	71.5	22.3	80.2
